Experimental data taken from publication PMC7979765, “trans-Translation inhibitors bind to a novel site on the ribosome and clear Neisseria gonorrhoeae in vivo” (Nature Communications, 2021).
In brackets after ≈: the same amount, converted by molar mass. Several values for one entry are separate records, joined by “and”; a condition that tells them apart may be missing. Identical values can stand only once.

Test system: Neisseria gonorrhoeae
Test: MIC, microbroth dilution, G77L medium
Type: cell-based

SMILES: O=C(Nc1nnc(-c2ccc(F)cc2)o1)N1CCc2ccccc2C1 [MBX-4132]
- MIC (Neisseria gonorrhoeae, strain MMX 6771, TET, by Micromyx): 0.14 µg/mL (≈ 0.414 µM)
- MIC (Neisseria gonorrhoeae, strain MMX 6793, CIP, by Micromyx): 0.14 µg/mL (≈ 0.414 µM)
- MIC (Neisseria gonorrhoeae, strain MMX 6797, CIP, TET, by Micromyx): 0.14 µg/mL (≈ 0.414 µM)
- MIC (Neisseria gonorrhoeae, strain MMX 6803, CIP, by Micromyx): 0.27 µg/mL (≈ 0.798 µM)
- MIC (Neisseria gonorrhoeae, strain MMX 6812, CIP, by Micromyx): 0.27 µg/mL (≈ 0.798 µM)
- MIC (Neisseria gonorrhoeae, strain MMX 6818, CIP, by Micromyx): 0.27 µg/mL (≈ 0.798 µM)
- MIC (Neisseria gonorrhoeae, strain MMX 6819, CIP, by Micromyx): 0.14 µg/mL (≈ 0.414 µM)
- MIC (Neisseria gonorrhoeae, strain MMX 6879, by Micromyx): 0.14 µg/mL (≈ 0.414 µM)
- MIC (Neisseria gonorrhoeae, strain MMX 6921, CIP, by Micromyx): 0.53 µg/mL (≈ 1.57 µM)
- MIC (Neisseria gonorrhoeae, strain MMX 6922, CIP, by Micromyx): 0.53 µg/mL (≈ 1.57 µM)
- MIC (Neisseria gonorrhoeae, strain MMX 6983, CIP, by Micromyx): 0.53 µg/mL (≈ 1.57 µM)
- MIC (Neisseria gonorrhoeae, strain MMX 6989, by Micromyx): 0.14 µg/mL (≈ 0.414 µM)
- MIC (Neisseria gonorrhoeae, strain MMX 6990, CIP, by Micromyx): 0.14 µg/mL (≈ 0.414 µM)
- MIC (Neisseria gonorrhoeae, strain MMX 6992, by Micromyx): 0.14 µg/mL (≈ 0.414 µM)
- MIC (Neisseria gonorrhoeae, strain MMX 6996, by Micromyx): 0.27 µg/mL (≈ 0.798 µM)
- MIC (Neisseria gonorrhoeae, strain MMX 6998, CIP, by Micromyx): 0.53 µg/mL (≈ 1.57 µM)
- MIC (Neisseria gonorrhoeae, strain MMX 7002, CIP, by Micromyx): 0.27 µg/mL (≈ 0.798 µM)
- MIC (Neisseria gonorrhoeae, strain MMX 7005, by Micromyx): 0.03 µg/mL (≈ 0.0887 µM)
- MIC (Neisseria gonorrhoeae, strain WHO F): 0.06 µg/mL (≈ 0.177 µM)
- MIC (Neisseria gonorrhoeae, strain WHO F, replicates 1-3): 0.066 µg/mL (≈ 0.195 µM)
- MIC (Neisseria gonorrhoeae, strain WHO G, PEN, TET): 0.13 µg/mL (≈ 0.384 µM)
- MIC (Neisseria gonorrhoeae, strain WHO G, replicates 1-3): 0.132 µg/mL (≈ 0.39 µM)
- MIC (Neisseria gonorrhoeae, strain WHO K, CIP, PEN, TET): 0.26 µg/mL (≈ 0.768 µM)
- MIC (Neisseria gonorrhoeae, strain WHO K, replicates 1-3): 0.264 µg/mL (≈ 0.78 µM)
- MIC (Neisseria gonorrhoeae, strain WHO L, CIP, PEN, TET): 0.26 µg/mL (≈ 0.768 µM)
- MIC (Neisseria gonorrhoeae, strain WHO L, replicates 1-3): 0.264 µg/mL (≈ 0.78 µM)
- MIC (Neisseria gonorrhoeae, strain WHO M, CIP, PEN, TET): 0.13 µg/mL (≈ 0.384 µM)
- MIC (Neisseria gonorrhoeae, strain WHO M, replicates 1-3): 0.132 µg/mL (≈ 0.39 µM)
- MIC (Neisseria gonorrhoeae, strain WHO N, CIP, PEN, TET): 0.26 µg/mL (≈ 0.768 µM)
- MIC (Neisseria gonorrhoeae, strain WHO N, replicates 1-3): 0.264 µg/mL (≈ 0.78 µM)
- MIC (Neisseria gonorrhoeae, strain WHO O, PEN, TET): 0.13 µg/mL (≈ 0.384 µM)
- MIC (Neisseria gonorrhoeae, strain WHO O, replicates 1-3): 0.132 µg/mL (≈ 0.39 µM)
- MIC (Neisseria gonorrhoeae, strain WHO P, PEN, TET): 0.33 µg/mL (≈ 0.975 µM)
- MIC (Neisseria gonorrhoeae, strain WHO U, PEN, TET): 0.13 µg/mL (≈ 0.384 µM)
- MIC (Neisseria gonorrhoeae, strain WHO U, replicates 1-3): 0.132 µg/mL (≈ 0.39 µM)
- MIC (Neisseria gonorrhoeae, strain WHO V, AZM, CIP, PEN, TET): 0.26 µg/mL (≈ 0.768 µM)
- MIC (Neisseria gonorrhoeae, strain WHO V, replicates 1-3): 0.264 µg/mL (≈ 0.78 µM)
- MIC (Neisseria gonorrhoeae, strain WHO W, CIP, PEN, TET): 0.13 µg/mL (≈ 0.384 µM)
- MIC (Neisseria gonorrhoeae, strain WHO W, replicates 1-3): 0.132 µg/mL (≈ 0.39 µM)
- MIC (Neisseria gonorrhoeae, strain WHO X, CIP, PEN, TET): 0.21 µg/mL (≈ 0.621 µM)
- MIC (Neisseria gonorrhoeae, strain WHO X, replicates 1-3): 0.132 µg/mL (≈ 0.39 µM)
- MIC (Neisseria gonorrhoeae, strain WHO Y, CIP, PEN, TET): 0.21 µg/mL (≈ 0.621 µM)
- MIC (Neisseria gonorrhoeae, strain WHO Y, replicates 1-3): 0.264 µg/mL (≈ 0.78 µM)
- MIC (Neisseria gonorrhoeae, strain WHO Z, CIP, PEN, TET): 0.26 µg/mL (≈ 0.768 µM)
- MIC (Neisseria gonorrhoeae, strain WHO Z, replicates 1-3): 0.264 µg/mL (≈ 0.78 µM)
- MIC (strain ATCC 49226, replicates 1-3): 0.169 µg/mL and 0.085 µg/mL
- MIC (strain ATCC 700719, replicates 1-3): 0.169 µg/mL and 0.338 µg/mL
- MIC (strain ATCC 700825, replicates 1-3): 0.042 µg/mL (≈ 0.124 µM)
- MIC (strain BAA-1846, replicates 1-3): 0.042 µg/mL (≈ 0.124 µM)
- MIC (strain CDC-0165, replicates 1-3): 0.677 µg/mL (≈ 2 µM)
- MIC (strain CDC-0166, replicates 1-3): 0.169 µg/mL (≈ 0.499 µM)
- MIC (strain CDC-0167, replicates 1-3): 0.169 µg/mL and 0.085 µg/mL
- MIC (strain CDC-0169, replicates 1-3): 0.169 µg/mL (≈ 0.499 µM)
- MIC (strain CDC-0170, replicates 1-3): 0.169 µg/mL (≈ 0.499 µM)
- MIC (strain CDC-0171, replicates 1-3): 0.169 µg/mL (≈ 0.499 µM)
- MIC (strain CDC-0172, replicates 1-3): 0.169 µg/mL (≈ 0.499 µM)
- MIC (strain CDC-0173, replicates 1-3): 0.169 µg/mL (≈ 0.499 µM)
- MIC (strain CDC-0174, replicates 1-3): 0.169 µg/mL (≈ 0.499 µM)
- MIC (strain CDC-0175, replicates 1-3): 0.085 µg/mL (≈ 0.251 µM)
